# US20200347043A1, “MODULATORS OF THE INTEGRATED STRESS PATHWAY” (Calico Life Sciences LLC, priority 2019, published 2020)
# Tested on: HEK293T cells carrying the ATF4 luciferase reporter
# Assay: ATF4-Luc assay (in vitro model of VWMD)
# Assay type: cell-based, human
# Conditions: Homo sapiens, HEK-293T, 1 μg/mL tunicamycin, 7 hours, One Glo luminescence
# In short: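 Stable HEK293T line expressing firefly luciferase behind the human ATF4 5′-UTR, treated with 1 μg/mL tunicamycin plus compound for 7 hours. Luminescence read with One Glo; EC50 determined.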
row,Compound,EC50
1,"O=C(CO[C@H]1C[C@@H](OC(F)(F)F)C1)NC12CC(NC(=O)[C@@H]3C[C@H](O)c4cc(Cl)ccc4O3)(C1)C2 [Compound 295, (2S,4S)-6-chloro-4-hydroxy-N-[3-(2-{[cis-3-(trifluoromethoxy)cyclobutyl]oxy}acetamido)bicyclo[1.1.1]pentan-1-yl]-3,4-dihydro-2H-1-benzopyran-2-carboxamide]",10 to 50 nM
2,"O=C(NC12CCC(c3ncc([C@H]4C[C@@H](OC(F)(F)F)C4)o3)(CC1)CC2)[C@H]1C[C@@H](O)c2cc(Cl)ccc2O1 [Compound 297, (2R,4R)-6-chloro-4-hydroxy-N-(4-{5-[cis-3-(trifluoromethoxy)cyclobutyl]-1,3-oxazol-2-yl}bicyclo[2.2.2]octan-1-yl)-3,4-dihydro-2H-1-benzopyran-2-carboxamide]",10 to 50 nM
3,"O=C(NC12CC(c3ccn([C@H]4C[C@@H](OC(F)(F)F)C4)n3)(C1)C2)[C@H]1C[C@@H](O)c2cc(Cl)ccc2O1 [Compound 298, (2R,4R)-6-chloro-4-hydroxy-N-(3-{1-[cis-3-(trifluoromethoxy)cyclobutyl]-1H-pyrazol-3-yl}bicyclo[1.1.1]pentan-1-yl)-3,4-dihydro-2H-1-benzopyran-2-carboxamide]",50 to 250 nM
4,"O=C(NC12CC(c3csc(O[C@H]4C[C@@H](OC(F)(F)F)C4)n3)(C1)C2)[C@H]1C[C@@H](O)c2cc(Cl)ccc2O1 [Compound 300, (2R,4R)-6-chloro-4-hydroxy-N-[3-(2-{[cis-3-(trifluoromethoxy)cyclobutyl]oxy}-1,3-thiazol-4-yl)bicyclo[1.1.1]pentan-1-yl]-3,4-dihydro-2H-1-benzopyran-2-carboxamide]",50 to 250 nM
5,"O=C(NC12CC(Oc3nc([C@H]4C[C@@H](OC(F)(F)F)C4)cs3)(C1)C2)[C@H]1C[C@@H](O)c2cc(Cl)ccc2O1 [Compound 301, (2R,4R)-6-chloro-4-hydroxy-N-[3-({4-[cis-3-(trifluoromethoxy)cyclobutyl]-1,3-thiazol-2-yl}oxy)bicyclo[1.1.1]pentan-1-yl]-3,4-dihydro-2H-1-benzopyran-2-carboxamide]",500 to 2000 nM
6,"O=C(NC12CC(n3cc(-c4ccc(OC(F)(F)F)cc4)cn3)(C1)C2)[C@H]1C[C@@H](O)c2cc(Cl)ccc2O1 [Compound 302, (2R,4R)-6-chloro-4-hydroxy-N-(3-{4-[4-(trifluoromethoxy)phenyl]-1H-pyrazol-1-yl}bicyclo[1.1.1]pentan-1-yl)-3,4-dihydro-2H-1-benzopyran-2-carboxamide]",< 10 nM
7,"O=C(N[C@H]1CC[C@H](N2CCN(c3cnc(C(F)F)cn3)C2=O)CC1)[C@H]1C[C@@H](O)c2cc(Cl)ccc2O1 [Compound 303, (2R,4R)-6-chloro-N-[trans-4-{3-[5-(difluoromethyl)pyrazin-2-yl]-2-oxoimidazolidin-1-yl}cyclohexyl]-4-hydroxy-3,4-dihydro-2H-1-benzopyran-2-carboxamide]",50 to 250 nM
8,"O=C(N[C@H]1C[C@H]2C[C@@H]1C[C@@H]2n1cnc(-c2ccc(F)c(F)c2)c1)[C@H]1C[C@@H](O)c2cc(Cl)ccc2O1 [Compound 304, (2R,4R)-6-chloro-N-{(1R,2S,4R,5S)-5-[4-(3,4-difluorophenyl)-1H-imidazol-1-yl]bicyclo[2.2.1]heptan-2-yl}-4-hydroxy-3,4-dihydro-2H-1-benzopyran-2-carboxamide]",< 10 nM
9,"O=C(NC12CC(c3cnc(-c4ccc(Cl)c(F)c4)o3)(C1)C2)[C@H]1C[C@@H](O)c2cc(Cl)ccc2O1 [Compound 305, (2R,4R)-6-chloro-N-{3-[2-(4-chloro-3-fluorophenyl)-1,3-oxazol-5-yl]bicyclo[1.1.1]pentan-1-yl}-4-hydroxy-3,4-dihydro-2H-1-benzopyran-2-carboxamide]",< 10 nM
10,"O=C(NC12CC(N3CC(c4ccc(Cl)cc4)CC3=O)(C1)C2)[C@H]1C[C@@H](O)c2cc(Cl)ccc2O1 (stereo partly drawn) [Compound 307, (2R,4R)-6-chloro-N-{3-[4-(4-chlorophenyl)-2-oxopyrrolidin-1-yl]bicyclo[1.1.1]pentan-1-yl}-4-hydroxy-3,4-dihydro-2H-1-benzopyran-2-carboxamide]",< 10 nM
11,"O=C(NC12CC(n3cc(-c4ccc(OC(F)(F)F)cn4)cn3)(C1)C2)[C@H]1C[C@@H](O)c2cc(Cl)ccc2O1 [Compound 308, (2R,4R)-6-chloro-4-hydroxy-N-(3-{4-[5-(trifluoromethoxy)pyridin-2-yl]-1H-pyrazol-1-yl}bicyclo[1.1.1]pentan-1-yl)-3,4-dihydro-2H-1-benzopyran-2-carboxamide]",< 10 nM
12,"O=C(N[C@H]1CC[C@H](N2CCN(c3ccc(C(F)(F)F)nc3)C2=O)CC1)[C@@H]1C[C@@H](O)c2cc(Cl)ccc2O1 [Compound 309, (2S,4R)-6-chloro-4-hydroxy-N-[trans-4-{2-oxo-3-[6-(trifluoromethyl)pyridin-3-yl]imidazolidin-1-yl}cyclohexyl]-3,4-dihydro-2H-1-benzopyran-2-carboxamide]",> 2000 nM
13,O=C(N[C@H]1CC[C@H](N2CCN(c3ccc(C(F)(F)F)nc3)C2=O)CC1)[C@H]1C[C@@H](O)c2cc(Cl)ccc2O1 [Compound 310],50 to 250 nM
